Test results from ChEMBL document CHEMBL4732119, “Design, synthesis and pharmacological evaluation of bicyclic and tetracyclic pyridopyrimidinone analogues as new KRAS inhibitors” (Eur J Med Chem, 2021).

Key:
MIA PaCa-2 [1] = test: Antiproliferative activity against human MIA PaCa-2 cells harboring KRAS G12C mutant assessed as growth inhibition at 0.1 uM measured after 72 hrs by CCK8 assay relative to control; assay type: functional; details: for inhibition of growth at 0.1 µM: Homo sapiens, MIA PaCa-2, read-out: GI
MIA PaCa-2 [2] = test: Antiproliferative activity against human MIA PaCa-2 cells harboring KRAS G12C mutant assessed as growth inhibition at 1 uM measured after 72 hrs by CCK8 assay relative to control; assay type: functional; details: for inhibition of growth at 1 µM: Homo sapiens, MIA PaCa-2, read-out: GI
MIA PaCa-2 [3] = test: Antiproliferative activity against human MIA PaCa-2 cells harboring KRAS G12C mutant assessed as growth inhibition at 10 uM measured after 72 hrs by CCK8 assay relative to control; assay type: functional; details: for inhibition of growth at 10 µM: Homo sapiens, MIA PaCa-2, read-out: GI
A549 [4] = test: Antiproliferative activity against human A549 cells harboring KRAS G12S mutant assessed as growth inhibition at 0.1 uM measured after 72 hrs by SRB assay relative to control; assay type: functional; details: for inhibition of growth at 0.1 µM: Homo sapiens, A549, read-out: GI
A549 [5] = test: Antiproliferative activity against human A549 cells harboring KRAS G12S mutant assessed as growth inhibition at 1 uM measured after 72 hrs by SRB assay relative to control; assay type: functional; details: for inhibition of growth at 1 µM: Homo sapiens, A549, read-out: GI
A549 [6] = test: Antiproliferative activity against human A549 cells harboring KRAS G12S mutant assessed as growth inhibition at 10 uM measured after 72 hrs by SRB assay relative to control; assay type: functional; details: for inhibition of growth at 10 µM: Homo sapiens, A549, read-out: GI
MIA PaCa-2 [7] = test: Antiproliferative activity against human MIA PaCa-2 cells harboring KRAS G12C mutant assessed as growth inhibition measured after 72 hrs by CCK8 assay; assay type: functional, cell-based
[8] = Inhibition of recombinant human N-terminal polyHis-tagged KRAS isoform 2B G12C mutant (Thr2 to Cys185 residues) expressed in Escherichia coli using GTP as substrate measured after 2 hrs by GTPase-glo assay
GTPase KRas = GTPase KRas (Homo sapiens, UniProt P01116); test: Inhibition of recombinant human N-terminal His-tagged KRAS (2 to 185 residues) expressed in baculovirus infected Sf9 insect cells using GTP as substrate measured after 2 hrs by GTPase-glo assay
NCI-H358 = test: Antiproliferative activity against human NCI-H358 cells harboring KRAS G12C mutant assessed as growth inhibition measured after 72 hrs by SRB assay; assay type: functional, cell-based
A549 [9] = test: Antiproliferative activity against human A549 cells harboring KRAS G12S mutant assessed as growth inhibition measured after 72 hrs by SRB assay; assay type: functional, cell-based; details: A549, 72 h
NCI-H1975 = test: Antiproliferative activity against human NCI-H1975 cells harboring wild-type KRAS assessed as growth inhibition measured after 72 hrs by SRB assay; assay type: functional, cell-based; details: NCI-H1975, 72 h

| SMILES | inhibition of growth at 0.1 µM (MIA PaCa-2 [1]) [%] | inhibition of growth at 1 µM (MIA PaCa-2 [2]) [%] | inhibition of growth at 10 µM (MIA PaCa-2 [3]) [%] | inhibition of growth at 0.1 µM (A549 [4]) [%] | inhibition of growth at 1 µM (A549 [5]) [%] | inhibition of growth at 10 µM (A549 [6]) [%] | IC50 (MIA PaCa-2 [7]; Homo sapiens, MIA PaCa-2, 72 h) [nM] | IC50 [8] [nM] | other results |
| --- | --- | --- | --- | --- | --- | --- | --- | --- | --- |
| CC#CC(=O)N1CCN(c2nc(=O)n(-c3c(C)ccnc3C(C)C)c3nc4c(cc23)oc2cccc(F)c24)[C@@H](C)C1 | 0.49 | 14.2 | 27.3 | -1.01 | 4.36 | 22.3 |  |  |  |
| C=C(C(=O)N1CCN(c2nc(=O)n(-c3c(C)ccnc3C(C)C)c3cc(-c4c(O)cccc4F)ncc23)[C@@H](C)C1)C(F)(F)F | 6.23 | 18.1 | 85.5 | 2.29 | 6.65 | 91.6 |  |  |  |
| C=C(F)C(=O)N1CCN(c2nc(=O)n(-c3c(C)ccnc3C(C)C)c3cc(-c4c(O)cccc4F)ncc23)[C@@H](C)C1 | 25.1 | 29.2 | 35 | 5.24 | 5.95 | 19 |  |  |  |
| CC#CC(=O)N1CCN(c2nc(=O)n(-c3c(C)ccnc3C(C)C)c3cc(-c4c(O)cccc4F)ncc23)[C@@H](C)C1 | 20.2 | 19.7 | 41.8 | 3.69 | 3.57 | 56.7 |  |  |  |
| C=CC(=O)N1CCN(c2nc(=O)n(-c3c(C)ccnc3C(C)C)c3nc4c(cc23)oc2ccc(F)cc24)[C@@H](C)C1 | 15.9 | 35.4 | 52.8 | 2.52 | 6.97 | 24.6 | > 10000 |  |  |
| C=CC(=O)N1CCN(c2nc(=O)n(-c3c(C)ccnc3C(C)C)c3nc(-c4c(O)cccc4F)ncc23)[C@@H](C)C1 | 5.39 | 8.56 | 49 | 5.83 | -5.05 | 23 |  |  |  |
| C=CC(=O)N1CCN(c2nc(=O)n(-c3c(C)ccnc3C(C)C)c3cc(-c4c(O)cccc4F)ncc23)[C@@H](C)C1 | 4.05 | 24.8 | 64.2 | 9.11 | 7.53 | 52.7 |  |  |  |
| C=CC(=O)N1CCN(c2nc(=O)n(-c3c(C)ccnc3C(C)C)c3c(F)c(-c4c(O)cccc4F)ncc23)[C@@H](C)C1 (stereo in doubt; 26ab) |  |  |  |  |  |  |  | 3570 | IC50 (MIA PaCa-2 [7]; mia paca-2): 1500 nM; IC50 (GTPase KRas; sf9): > 10000 nM; IC50 (NCI-H358; nci-h358): 880 nM |
| C=CC(=O)N1CCN(c2nc(=O)n(-c3c(C)ccnc3C(C)C)c3nc4c(cc23)oc2cccc(O)c24)[C@@H](C)C1 | 1.41 | 1.71 | 9.78 | 32.8 | 35.3 | 23.1 |  |  |  |
| C=CC(=O)N1CCN(c2nc(=O)n(-c3c(C(C)C)ncnc3C(C)C)c3c(Cl)c(-c4c(O)cccc4F)ncc23)[C@@H](C)C1 |  |  |  |  |  |  |  | > 10000 | IC50 (GTPase KRas): > 10000 nM |
| C=CC(=O)N1CCN(c2nc(=O)n(-c3c(C)ccnc3C(C)C)c3nc4c(cc23)oc2ccc(C)cc24)[C@@H](C)C1 | 40.6 | 42.7 | 57.8 | 2.95 | 1.74 | 27.8 | > 10000 |  |  |
| C=CC(=O)N1CCN(c2nc(=O)n(-c3c(C)ccnc3C(C)C)c3nc(-c4c(O)cccc4F)c(F)cc23)[C@@H](C)C1 [SOTORASIB] |  |  |  |  |  |  | 29 | 1270 | growth inhibition (GI) (MIA PaCa-2 [1]): 49.49%; growth inhibition (GI) (MIA PaCa-2 [2]): 64.63%; growth inhibition (GI) (MIA PaCa-2 [3]): 59.49%; growth inhibition (GI) (A549 [4]): 4.13%; growth inhibition (GI) (A549 [5]): 5.81%; growth inhibition (GI) (A549 [6]): 24.09%; IC50 (NCI-H358; Homo sapiens, NCI-H358, 72 h): < 16 nM; IC50 (A549 [9]): > 10000 nM; IC50 (NCI-H1975): > 10000 nM |
| C=CC(=O)N1CCN(c2nc(=O)n(-c3c(C(C)C)cccc3C(C)C)c3c(F)c(-c4c(O)cccc4F)ncc23)[C@@H](C)C1 |  |  |  |  |  |  |  | > 10000 | IC50 (GTPase KRas): > 10000 nM |
| C=CC(=O)N1CCN(c2nc(=O)n(-c3c(C)ccnc3C(C)C)c3c(F)c(-c4c(O)cccc4F)ncc23)[C@@H](C)C1 (stereo in doubt; 26aa) |  |  |  |  |  |  |  | 1790 | IC50 (MIA PaCa-2 [7]; mia paca-2): 600 nM; IC50 (GTPase KRas; sf9): > 10000 nM; IC50 (NCI-H358; nci-h358): 300 nM |
| Cc1ccnc(C(C)C)c1-n1c(=O)nc(N2CCN(C(=O)/C=C/CN(C)C)C[C@@H]2C)c2cc3oc4cccc(F)c4c3nc21 | 1.88 | 14.9 | 32 | 7.85 | 2.99 | 2.64 |  |  |  |
| C=CC(=O)N1CCN(c2nc(=O)n(-c3c(C)ccnc3C(C)C)c3nc4c(cc23)oc2cccc(F)c24)[C@@H](C)C1 | 35.3 | 19.3 | 48.7 | 7.06 | 2.22 | 28.6 |  |  |  |
| C=CC(=O)N1CCN(c2nc(=O)n(-c3c(C)ccnc3C(C)C)c3c(Cl)c(-c4c(O)cccc4F)ncc23)[C@@H](C)C1 |  |  |  |  |  |  | 2700 | 2400 | IC50 (GTPase KRas): > 10000 nM; IC50 (NCI-H358; Homo sapiens, NCI-H358, 72 h): 1210 nM; IC50 (A549 [9]): > 10000 nM; IC50 (NCI-H1975): > 10000 nM |
| C=CC(=O)N1CCN(c2nc(=O)n(-c3c(C)ccnc3C(C)C)c3c(F)c(-c4c(O)cccc4F)ncc23)[C@@H](C)C1 (stereo in doubt; 26a) |  |  |  |  |  |  |  | 1870 | IC50 (MIA PaCa-2 [7]; mia paca-2): 530 nM; IC50 (GTPase KRas): > 10000 nM; IC50 (NCI-H358; nci-h358): 260 nM; IC50 (A549 [9]): > 10000 nM; IC50 (NCI-H1975): > 10000 nM |
| C=CC(=O)N1CCN(c2nc(=O)n(-c3c(C)ccnc3C(C)C)c3nc4c(cc23)oc2cc(F)c(F)cc24)[C@@H](C)C1 | 32.3 | 6.35 | 75.2 | -5.33 | 7.03 | 21.1 | 7970 |  |  |
| C=CC(=O)N1C2CCC1CN(c1nc(=O)n(-c3c(C)ccnc3C(C)C)c3nc4c(cc13)oc1cccc(F)c14)C2 | 8.58 | 14.5 | 53.2 | 4.85 | 9.32 | 35.7 | > 10000 |  |  |
| C=CC(=O)N1CCN(c2ncnc3c(F)c(-c4c(O)cccc4F)c(Cl)cc23)CC1 | 21 | 34.9 | 62.5 | 8.27 | 6.3 | 31.2 | 1060 |  |  |
| C=CC(=O)N1CCN(c2nc(=O)n(-c3c(C(C)C)ncnc3C(C)C)c3c(F)c(-c4c(O)cccc4F)ncc23)[C@@H](C)C1 |  |  |  |  |  |  | 430 | 1810 | IC50 (GTPase KRas): > 10000 nM; IC50 (NCI-H358; Homo sapiens, NCI-H358, 72 h): 260 nM; IC50 (A549 [9]): 3270 nM; IC50 (NCI-H1975): 8990 nM |
